# Legend:
# Test in all cases: relative viability (nuclei count vs DMSO), 5 days (fraction); higher = more cells survive
# Gemcitabine + Lapatinib = compound: Nc1ccn([C@@H]2O[C@H](CO)[C@@H](O)C2(F)F)c(=O)n1 [Gemcitabine] + CS(=O)(=O)CCNCc1ccc(-c2ccc3ncnc(Nc4ccc(OCc5cccc(F)c5)c(Cl)c4)c3c2)o1 [Lapatinib] (partner 2 µM)
# Method in brief: (§1)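 For relative viability, nuclei counts in treated wells were divided by those in vehicle wells. Lung cancer cell lines had been pin-tool dosed in 1536-well plates the day after seeding and cultured for 5 days, then fixed and stained in one step (final 0.05% Triton X-100, 1% formaldehyde, 1 ug/ml Hoechst) and imaged at 4×. Doses were one drug alone or a fixed anchor-drug dose plus five library-drug doses (not always all listed) in √10 steps, and values are duplicate-plate medians.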
# Gemcitabine + Dasatinib = compound: Nc1ccn([C@@H]2O[C@H](CO)[C@@H](O)C2(F)F)c(=O)n1 [Gemcitabine] + Cc1nc(Nc2ncc(C(=O)Nc3c(C)cccc3Cl)s2)cc(N2CCN(CCO)CC2)n1 [Dasatinib] (partner 0.075 µM)
# Method in brief: as §1
# Gemcitabine + Crizotinib = compound: Nc1ccn([C@@H]2O[C@H](CO)[C@@H](O)C2(F)F)c(=O)n1 [Gemcitabine] + C[C@@H](Oc1cc(-c2cnn(C3CCNCC3)c2)cnc1N)c1c(Cl)ccc(F)c1Cl [Crizotinib] (partner 1 µM)
# Method in brief: as §1
# Gemcitabine + Pemetrexed = compound: Nc1ccn([C@@H]2O[C@H](CO)[C@@H](O)C2(F)F)c(=O)n1 [Gemcitabine] + Nc1nc2[nH]cc(CCc3ccc(C(=O)N[C@@H](CCC(=O)O)C(=O)O)cc3)c2c(=O)[nH]1 [Pemetrexed] (partner 0.2 µM)
# Method in brief: as §1
cell line,measurement,setting,value
NCI-H727,relative viability,Gemcitabine + Lapatinib; first compound 0.001 µM,0.843
same,relative viability,Gemcitabine + Lapatinib; first compound 0.003162 µM,0.561
same,relative viability,Gemcitabine + Lapatinib; first compound 0.01 µM,0.262
same,relative viability,Gemcitabine + Lapatinib; first compound 0.03162 µM,0.239
same,relative viability,Gemcitabine + Lapatinib; first compound 0.1 µM,0.281
same,relative viability,Gemcitabine + Dasatinib; first compound 0.001 µM,0.303
same,relative viability,Gemcitabine + Dasatinib; first compound 0.003162 µM,0.33
same,relative viability,Gemcitabine + Dasatinib; first compound 0.01 µM,0.295
same,relative viability,Gemcitabine + Dasatinib; first compound 0.03162 µM,0.264
same,relative viability,Gemcitabine + Dasatinib; first compound 0.1 µM,0.345
same,relative viability,Gemcitabine + Crizotinib; first compound 0.001 µM,0.771
same,relative viability,Gemcitabine + Crizotinib; first compound 0.003162 µM,0.32
same,relative viability,Gemcitabine + Crizotinib; first compound 0.01 µM,0.243
same,relative viability,Gemcitabine + Crizotinib; first compound 0.03162 µM,0.266
same,relative viability,Gemcitabine + Crizotinib; first compound 0.1 µM,0.219
NCI-H1355,relative viability,Gemcitabine + Pemetrexed; first compound 0.001 µM,1
same,relative viability,Gemcitabine + Pemetrexed; first compound 0.003162 µM,0.885
same,relative viability,Gemcitabine + Pemetrexed; first compound 0.01 µM,0.455
same,relative viability,Gemcitabine + Pemetrexed; first compound 0.03162 µM,0.173
same,relative viability,Gemcitabine + Pemetrexed; first compound 0.1 µM,0.162
same,relative viability,Gemcitabine + Lapatinib; first compound 0.001 µM,0.884
same,relative viability,Gemcitabine + Lapatinib; first compound 0.003162 µM,0.825
same,relative viability,Gemcitabine + Lapatinib; first compound 0.01 µM,0.304
same,relative viability,Gemcitabine + Lapatinib; first compound 0.03162 µM,0.153
same,relative viability,Gemcitabine + Lapatinib; first compound 0.1 µM,0.153
same,relative viability,Gemcitabine + Dasatinib; first compound 0.001 µM,0.813
same,relative viability,Gemcitabine + Dasatinib; first compound 0.003162 µM,0.695
same,relative viability,Gemcitabine + Dasatinib; first compound 0.01 µM,0.226
same,relative viability,Gemcitabine + Dasatinib; first compound 0.03162 µM,0.196
same,relative viability,Gemcitabine + Dasatinib; first compound 0.1 µM,0.143
same,relative viability,Gemcitabine + Crizotinib; first compound 0.001 µM,0.996
same,relative viability,Gemcitabine + Crizotinib; first compound 0.003162 µM,0.706
same,relative viability,Gemcitabine + Crizotinib; first compound 0.01 µM,0.193
same,relative viability,Gemcitabine + Crizotinib; first compound 0.03162 µM,0.158
same,relative viability,Gemcitabine + Crizotinib; first compound 0.1 µM,0.141
NCI-H1975,relative viability,Gemcitabine + Pemetrexed; first compound 0.001 µM,0.286
same,relative viability,Gemcitabine + Pemetrexed; first compound 0.003162 µM,0.29
same,relative viability,Gemcitabine + Pemetrexed; first compound 0.01 µM,0.306
same,relative viability,Gemcitabine + Pemetrexed; first compound 0.03162 µM,0.178
same,relative viability,Gemcitabine + Pemetrexed; first compound 0.1 µM,0.173
same,relative viability,Gemcitabine + Lapatinib; first compound 0.001 µM,0.983
same,relative viability,Gemcitabine + Lapatinib; first compound 0.003162 µM,1.1
same,relative viability,Gemcitabine + Lapatinib; first compound 0.01 µM,0.725
same,relative viability,Gemcitabine + Lapatinib; first compound 0.03162 µM,0.245
same,relative viability,Gemcitabine + Lapatinib; first compound 0.1 µM,0.179
same,relative viability,Gemcitabine + Dasatinib; first compound 0.001 µM,0.419
same,relative viability,Gemcitabine + Dasatinib; first compound 0.003162 µM,0.574
same,relative viability,Gemcitabine + Dasatinib; first compound 0.01 µM,0.241
same,relative viability,Gemcitabine + Dasatinib; first compound 0.03162 µM,0.0982
same,relative viability,Gemcitabine + Dasatinib; first compound 0.1 µM,0.103
same,relative viability,Gemcitabine + Crizotinib; first compound 0.001 µM,0.996
same,relative viability,Gemcitabine + Crizotinib; first compound 0.003162 µM,1.01
same,relative viability,Gemcitabine + Crizotinib; first compound 0.01 µM,0.48
same,relative viability,Gemcitabine + Crizotinib; first compound 0.03162 µM,0.201
same,relative viability,Gemcitabine + Crizotinib; first compound 0.1 µM,0.16
LK-2,relative viability,Gemcitabine + Pemetrexed; first compound 0.001 µM,0.298
same,relative viability,Gemcitabine + Pemetrexed; first compound 0.003162 µM,0.321
same,relative viability,Gemcitabine + Pemetrexed; first compound 0.01 µM,0.238
same,relative viability,Gemcitabine + Pemetrexed; first compound 0.03162 µM,0.14
same,relative viability,Gemcitabine + Pemetrexed; first compound 0.1 µM,0.114
same,relative viability,Gemcitabine + Lapatinib; first compound 0.001 µM,0.977
same,relative viability,Gemcitabine + Lapatinib; first compound 0.003162 µM,0.692
same,relative viability,Gemcitabine + Lapatinib; first compound 0.01 µM,0.817
same,relative viability,Gemcitabine + Lapatinib; first compound 0.03162 µM,0.329
same,relative viability,Gemcitabine + Lapatinib; first compound 0.1 µM,0.249
same,relative viability,Gemcitabine + Dasatinib; first compound 0.001 µM,0.299
same,relative viability,Gemcitabine + Dasatinib; first compound 0.003162 µM,0.356
same,relative viability,Gemcitabine + Dasatinib; first compound 0.01 µM,0.174
same,relative viability,Gemcitabine + Dasatinib; first compound 0.03162 µM,0.201
same,relative viability,Gemcitabine + Dasatinib; first compound 0.1 µM,0.158
same,relative viability,Gemcitabine + Crizotinib; first compound 0.001 µM,0.285
same,relative viability,Gemcitabine + Crizotinib; first compound 0.01 µM,0.255
same,relative viability,Gemcitabine + Crizotinib; first compound 0.03162 µM,0.238
same,relative viability,Gemcitabine + Crizotinib; first compound 0.1 µM,0.225
NCI-H441,relative viability,Gemcitabine + Pemetrexed; first compound 0.001 µM,0.277
same,relative viability,Gemcitabine + Pemetrexed; first compound 0.003162 µM,0.282
same,relative viability,Gemcitabine + Pemetrexed; first compound 0.01 µM,0.217
same,relative viability,Gemcitabine + Pemetrexed; first compound 0.03162 µM,0.16
same,relative viability,Gemcitabine + Pemetrexed; first compound 0.1 µM,0.115
same,relative viability,Gemcitabine + Dasatinib; first compound 0.001 µM,0.569
same,relative viability,Gemcitabine + Dasatinib; first compound 0.003162 µM,0.282
same,relative viability,Gemcitabine + Dasatinib; first compound 0.01 µM,0.215
same,relative viability,Gemcitabine + Dasatinib; first compound 0.03162 µM,0.129
same,relative viability,Gemcitabine + Dasatinib; first compound 0.1 µM,0.133
same,relative viability,Gemcitabine + Crizotinib; first compound 0.001 µM,0.82
same,relative viability,Gemcitabine + Crizotinib; first compound 0.003162 µM,0.286
same,relative viability,Gemcitabine + Crizotinib; first compound 0.01 µM,0.167
same,relative viability,Gemcitabine + Crizotinib; first compound 0.03162 µM,0.121
same,relative viability,Gemcitabine + Crizotinib; first compound 0.1 µM,0.129
EBC-1,relative viability,Gemcitabine + Lapatinib; first compound 0.001 µM,0.15
same,relative viability,Gemcitabine + Lapatinib; first compound 0.003162 µM,0.187
same,relative viability,Gemcitabine + Lapatinib; first compound 0.01 µM,0.176
same,relative viability,Gemcitabine + Lapatinib; first compound 0.03162 µM,0.181
same,relative viability,Gemcitabine + Lapatinib; first compound 0.1 µM,0.167
same,relative viability,Gemcitabine + Crizotinib; first compound 0.001 µM,0.192
same,relative viability,Gemcitabine + Crizotinib; first compound 0.003162 µM,0.166
same,relative viability,Gemcitabine + Crizotinib; first compound 0.01 µM,0.161
same,relative viability,Gemcitabine + Crizotinib; first compound 0.03162 µM,0.134
same,relative viability,Gemcitabine + Crizotinib; first compound 0.1 µM,0.159
HCC-44,relative viability,Gemcitabine + Pemetrexed; first compound 0.001 µM,0.634
same,relative viability,Gemcitabine + Pemetrexed; first compound 0.003162 µM,0.68
same,relative viability,Gemcitabine + Pemetrexed; first compound 0.01 µM,0.66
same,relative viability,Gemcitabine + Pemetrexed; first compound 0.03162 µM,0.632
same,relative viability,Gemcitabine + Pemetrexed; first compound 0.1 µM,0.63
same,relative viability,Gemcitabine + Lapatinib; first compound 0.001 µM,1.01
same,relative viability,Gemcitabine + Lapatinib; first compound 0.003162 µM,0.98
same,relative viability,Gemcitabine + Lapatinib; first compound 0.01 µM,0.897
same,relative viability,Gemcitabine + Lapatinib; first compound 0.03162 µM,0.477
same,relative viability,Gemcitabine + Lapatinib; first compound 0.1 µM,0.17
same,relative viability,Gemcitabine + Crizotinib; first compound 0.001 µM,0.825
same,relative viability,Gemcitabine + Crizotinib; first compound 0.003162 µM,0.756
same,relative viability,Gemcitabine + Crizotinib; first compound 0.01 µM,0.614
same,relative viability,Gemcitabine + Crizotinib; first compound 0.03162 µM,0.201
same,relative viability,Gemcitabine + Crizotinib; first compound 0.1 µM,0.154
SW 900,relative viability,Gemcitabine + Pemetrexed; first compound 0.001 µM,0.476
same,relative viability,Gemcitabine + Pemetrexed; first compound 0.003162 µM,0.401
same,relative viability,Gemcitabine + Pemetrexed; first compound 0.01 µM,0.171
same,relative viability,Gemcitabine + Pemetrexed; first compound 0.03162 µM,0.124
same,relative viability,Gemcitabine + Pemetrexed; first compound 0.1 µM,0.109
same,relative viability,Gemcitabine + Dasatinib; first compound 0.001 µM,0.526
same,relative viability,Gemcitabine + Dasatinib; first compound 0.003162 µM,0.138
same,relative viability,Gemcitabine + Dasatinib; first compound 0.01 µM,0.0977
same,relative viability,Gemcitabine + Dasatinib; first compound 0.03162 µM,0.0689
same,relative viability,Gemcitabine + Dasatinib; first compound 0.1 µM,0.0628

# — the supplement of paper PMC10307832
